Results from PubChem BioAssay (NCI).
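Following 48 hours of exposure in 96-well plates, responses at five concentrations were used to interpolate endpoints linearly. GI50: concentration for 50% inhibition of growth. TGI marks complete inhibition of growth.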

How the values were obtained:
Experiment in all cases: growth of human tumour cells (NCI), 48 h
[1] = tested on: NCI-H226 lung
[2] = tested on: NCI-H23 lung
[3] = tested on: NCI-H460 lung
[4] = tested on: NCI-H522 lung
[5] = tested on: OVCAR-3 ovarian
[6] = tested on: OVCAR-4 ovarian
[7] = tested on: OVCAR-5 ovarian
[8] = tested on: OVCAR-8 ovarian
[9] = tested on: PC-3 prostate
[10] = tested on: RPMI-8226 leukemia
[11] = tested on: RXF 393 renal
[12] = tested on: SF-268 CNS
[13] = tested on: SF-295 CNS
[14] = tested on: SF-539 CNS
[15] = tested on: SK-MEL-2 melanoma
[16] = tested on: SK-MEL-28 melanoma
[17] = tested on: SK-MEL-5 melanoma
[18] = tested on: SK-OV-3 ovarian
[19] = tested on: SN12C renal
[20] = tested on: SNB-19 CNS
[21] = tested on: SNB-75 CNS
[22] = tested on: SR leukemia
[23] = tested on: SW-620 colon
[24] = tested on: T-47D breast
[25] = tested on: TK-10 renal
[26] = tested on: U251 CNS
[27] = tested on: UACC-257 melanoma
[28] = tested on: UACC-62 melanoma
[29] = tested on: UO-31 renal

## COc1ccc(-c2ccnc(SCc3cc4cc(Cl)ccc4[nH]c3=O)n2)cc1
[1]
  GI50: 2.96 µM
  TGI: 10.4 µM
[2]
  GI50: 13.7 µM
  TGI: 45.1 µM
[3]
  GI50: 5.63 µM
  TGI: 58.7 µM
[4]
  GI50: 5.18 µM
  TGI: 32.4 µM
[5]
  GI50: 9.93 µM
  TGI: 27.2 µM
[6]
  GI50: 3.85 µM
  TGI: 24.5 µM
[7]
  GI50: 21 µM
  TGI: 85.8 µM
[8]
  GI50: 4.9 µM
  TGI: > 100 µM
[9]
  GI50: 6.9 µM
  TGI: 45.7 µM
[10]
  GI50: 16.8 µM
  TGI: > 100 µM
[11]
  GI50: 2.27 µM
  TGI: 8.31 µM
[12]
  GI50: 3.41 µM
  TGI: 20.4 µM
[13]
  GI50: 5.49 µM
  TGI: 26.8 µM
[14]
  GI50: 3.16 µM
  TGI: 14.8 µM
[15]
  GI50: 14.6 µM
  TGI: 39.2 µM
[16]
  GI50: 7.39 µM
  TGI: 31.6 µM
[17]
  GI50: 14.2 µM
  TGI: 71.6 µM
[18]
  GI50: 4.97 µM
  TGI: 21.2 µM
[19]
  GI50: 11.6 µM
  TGI: > 100 µM
[20]
  GI50: 3.7 µM
  TGI: 28.6 µM
[21]
  GI50: 1.69 µM
  TGI: 3.98 µM
[22]
  GI50: 21.6 µM
  TGI: > 100 µM
[23]
  GI50: 26.2 µM
  TGI: > 100 µM
[24]
  GI50: 19.7 µM
  TGI: > 100 µM
[25]
  GI50: 26.3 µM
  TGI: 90 µM
[26]
  GI50: 13.5 µM
  TGI: 46.6 µM
[27]
  GI50: 16.4 µM
  TGI: 82 µM
[28]
  GI50: 14.8 µM
  TGI: 53.2 µM
[29]
  GI50: 14.5 µM
  TGI: 54.4 µM
